{
  "source": "patent US8299081B2",
  "about": "“Methods for treating drug resistant cancer” (Novartis AG, priority 2005, dated 2012)",
  "key": {"RS4;11 tumors": {"tested_on": "RS4;11 tumors", "test": "Subcutaneous RS4;11 tumor xenograft model", "type": "in vivo, SCID-NOD mice"}, "[1]": {"design": "species or system human", "details": "in vivo", "procedure": "(§1) Phase I dose escalating multi-center open label studies were conducted to evaluate the safety, pharmacokinetics, and pharmacodynamics of Compound 1 in subjects with advanced solid malignancies. Further primary objectives of the studies included: 1) determining the Maximum Tolerated Dose (MTD); 2) identifying Dose Limiting Toxicity (DLT); and 3) assessing safety provil in subject with advanced solid tumors. Secondary objectives of the study included: 1) evaluating pharmacokinetics; 2) evaluating pharmacodynamics in plasma, peripheral blood lymphocytes, urine, and tumor cells; 3) recommending dose and schedule for future investigations; and 4) determining evidence of anti-tumor activity (RECIST). Details regarding this study are set forth below\n[…]. Plasma exposure in the 100 mg dose group approaches the range where preclinical efficacy has been noted."}, "MV4;11 tumors": {"tested_on": "MV4;11 tumors", "test": "Subcutaneous MV4;11 tumor xenograft model", "type": "in vivo, SCID-NOD mice"}, "P-glycoprotein": {"target": "P-glycoprotein (Homo sapiens, UniProt P08183)", "sequence (P08183 whole entry)": "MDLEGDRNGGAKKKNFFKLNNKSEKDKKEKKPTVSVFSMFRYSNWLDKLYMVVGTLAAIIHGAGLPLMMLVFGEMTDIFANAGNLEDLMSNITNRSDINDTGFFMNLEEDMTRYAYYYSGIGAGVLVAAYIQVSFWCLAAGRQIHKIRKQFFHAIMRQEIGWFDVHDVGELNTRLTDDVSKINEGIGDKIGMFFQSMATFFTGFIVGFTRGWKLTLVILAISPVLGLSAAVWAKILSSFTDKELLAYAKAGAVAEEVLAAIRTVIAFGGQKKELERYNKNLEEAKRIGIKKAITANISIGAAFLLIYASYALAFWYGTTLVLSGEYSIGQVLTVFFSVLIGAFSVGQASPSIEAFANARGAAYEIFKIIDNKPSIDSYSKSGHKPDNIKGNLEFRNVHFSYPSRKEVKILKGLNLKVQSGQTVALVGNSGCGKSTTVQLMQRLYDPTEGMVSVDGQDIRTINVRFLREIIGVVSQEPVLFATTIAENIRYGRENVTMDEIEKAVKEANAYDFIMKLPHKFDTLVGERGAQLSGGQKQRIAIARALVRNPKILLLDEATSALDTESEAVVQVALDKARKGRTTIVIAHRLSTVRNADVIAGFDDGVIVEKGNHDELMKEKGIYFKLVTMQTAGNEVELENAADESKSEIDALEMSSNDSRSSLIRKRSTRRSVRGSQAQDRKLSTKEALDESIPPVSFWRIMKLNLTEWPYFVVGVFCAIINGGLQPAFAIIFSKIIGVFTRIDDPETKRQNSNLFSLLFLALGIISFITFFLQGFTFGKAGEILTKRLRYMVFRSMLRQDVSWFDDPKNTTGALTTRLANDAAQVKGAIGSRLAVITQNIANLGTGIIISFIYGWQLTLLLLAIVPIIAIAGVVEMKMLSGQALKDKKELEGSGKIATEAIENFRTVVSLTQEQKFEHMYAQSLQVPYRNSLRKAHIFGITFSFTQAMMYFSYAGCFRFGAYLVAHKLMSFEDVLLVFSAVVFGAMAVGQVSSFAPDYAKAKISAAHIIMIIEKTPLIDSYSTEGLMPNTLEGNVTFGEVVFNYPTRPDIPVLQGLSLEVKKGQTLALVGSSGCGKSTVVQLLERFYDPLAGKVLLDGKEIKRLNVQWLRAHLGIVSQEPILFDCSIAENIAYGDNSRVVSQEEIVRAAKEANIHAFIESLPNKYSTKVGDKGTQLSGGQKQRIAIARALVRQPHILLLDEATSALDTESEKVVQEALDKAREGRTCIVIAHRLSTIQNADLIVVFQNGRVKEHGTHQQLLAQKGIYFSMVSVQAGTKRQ", "test": "P-GP substrate status", "type": "in vitro ADME"}, "pSTAT5 in MV4;11 tumors": {"tested_on": "pSTAT5 in MV4;11 tumors", "test": "Target modulation in vivo: pSTAT5 in MV4;11 tumors", "details": "Mus musculus"}, "[2]": {"tested_on": "KM12L4A human colon tumor xenografts", "test": "KM12L4A human colon tumor xenografts", "type": "in vivo, nude mice", "details": "large established tumors 500 or 1000 mm^3, dosed daily", "text": "These compounds have also shown oral activity in a variety of angiogenesis tumor and metastases animal models."}, "[3]": {"details": "human, in vivo", "procedure": "as §1, with “below […]” for “below”"}, "[4]": {"tested_on": "advanced solid malignancies", "test": "Phase I dose escalating study: anti-tumor activity", "type": "in vivo, human", "procedure": "as §1, with “below […]” for “below”"}, "MV4;11 cells": {"tested_on": "MV4;11 cells", "test": "Intravenous bone marrow (BM) engraftment model MV4;11", "type": "in vivo, SCID-NOD mice", "procedure": "For processing of bone marrow (BM) cells from the mouse MV4;11 engraftment model, femurs were purged with cold saline and red blood cells lysed with FACS lysis buffer (Becton Dickinson). Percent engraftment of human leukemic cells in mouse BM was determined by staining with anti-human HLA-A,B,C-FITC (vs. isotype-matched antibody-FITC control) (BD Pharmingen).\n[…]. […] Mice were monitored daily and were euthanized when moribund or early signs of loss of hind limb motility. Increased life span (ILS) of treated mice was calculated as a percent increase in median survival time (MST) vs. vehicle treated control mice.\n. In this model, MV4;11 cells disseminate to the bone marrow (BM), pathologically mimicking a disease pattern similar to human leukemia. […]. Histological analyses and flow cytometry were used to quantify the % engraftment of MV4;11 cells in BM (FIG. 21). In flow cytometric analyses, human MV4;11 cells were identified in mouse BM with an anti-human HLA-A,B,C antibody which binds to an epitope on human MHCl. In vehicle-treated mice, approximately 2-19% of total isolated BM cells consisted of engrafted MV4;11 cells (day 51, FIG. 21-a). This was also corroborated by immunohistochemistry with an antibody to human mitochondria which stains MV4;11 cells identifying the human cells in the mouse BM matrix (FIG. 21-b,c). […]."}, "[5]": {"tested_on": "L1210 murine leukemia cells (parental line)", "details": "cited from earlier work"}, "[6]": {"tested_on": "melphalan-resistant L1210 murine leukemia cells", "details": "cited from earlier work"}, "[7]": {"details": "MV4;11, 30 mg/kg/d, dose-response study"}, "[8]": {"details": "large MV4;11 tumors 300, 500 or 1000 mm^3, 30 mg/kg/d, n=27"}},
  "note": "Where two headings read alike, the source gives them in different places.",
  "data": [
    {"molecule": "CN1CCN(c2ccc3nc(-c4c(N)c5c(F)cccc5[nH]c4=O)[nH]c3c2)CC1", "note": "[Compound 1, 4-amino-5-fluoro-3-[6-(4-methyl-piperazin-1-yl)-1H-benzimidazol-2-yl]-1H-quinolin-2-one]", "values": [
      {"measurement": "TGI", "setting": "RS4;11 tumors; 100 mg/kg/d, day 8", "value": 48, "unit": "%"},
      {"measurement": "minimum effective dose", "setting": "RS4;11 tumors; day 8, p<0.01", "value": 100, "unit": "mg/kg/day"},
      {"measurement": "plasma exposure (Cmax, AUC) versus dose", "setting": "[1]", "value": "increases proportionally with dose"},
      {"measurement": "tumor growth inhibition (TGI)", "setting": "MV4;11 tumors; MV4;11, 1 mg/kg/d oral, after 2 weeks of dosing", "value": 23, "unit": "%"},
      {"measurement": "number of CR", "setting": "MV4;11 tumors; MV4;11, 30 mg/kg daily, schedule study", "value": 1},
      {"measurement": "TGI", "setting": "MV4;11 tumors; MV4;11, 30 mg/kg, intermittent dosage regimens", "value": "> 94", "unit": "%"},
      {"measurement": "complete responders (CR)", "setting": "MV4;11 tumors; [7]", "value": 1},
      {"measurement": "tumor responses (regression)", "setting": "MV4;11 tumors; [7]", "value": 9110},
      {"measurement": "PRs durable for 40 days after cessation of dosing", "setting": "MV4;11 tumors; MV4;11, after 50 days of 30 mg/kg/d", "value": "approximately 50%"},
      {"measurement": "doses giving significant tumor growth inhibition", "setting": "MV4;11 tumors; MV4;11 tumors", "value": "> 5", "unit": "mg/kg/day"},
      {"measurement": "minimum statistically effective dose", "setting": "MV4;11 tumors; MV4;11 tumors, p<0.01 vs. Vehicle", "value": 1, "unit": "mg/kg/day"},
      {"measurement": "complete responses", "setting": "MV4;11 tumors; [8]", "value": 15, "unit": "%"},
      {"measurement": "minor responses or remained stable", "setting": "MV4;11 tumors; [8]", "value": 15, "unit": "%"},
      {"measurement": "partial responses", "setting": "MV4;11 tumors; [8]", "value": 70, "unit": "%"},
      {"measurement": "time until tumor regressions were evident", "setting": "MV4;11 tumors; large MV4;11 tumors, 30 mg/kg/d", "value": "3 to 5", "unit": "days"},
      {"measurement": "number of CR, second cycle", "setting": "MV4;11 tumors; ten re-grown MV4;11 tumors re-treated with 30 mg/kg/d for 60 days", "value": 2},
      {"measurement": "P-GP substrate", "setting": "P-glycoprotein", "value": "not a P-GP substrate"},
      {"measurement": "inhibition at 10 mg/kg", "setting": "pSTAT5 in MV4;11 tumors; MV4-11, read-out: inhibition of STAT5 phosphorylation in tumors, 10 mg/kg/d x 5 days, 8 hour post dose (maximum)", "value": 90, "unit": "%"},
      {"measurement": "inhibition at 10 mg/kg", "setting": "pSTAT5 in MV4;11 tumors; MV4-11, read-out: inhibition of STAT5 phosphorylation in tumors, 10 mg/kg/d x 5 days, 24 hours", "value": 85, "unit": "%"},
      {"measurement": "inhibition at 10 mg/kg", "setting": "pSTAT5 in MV4;11 tumors; MV4-11, read-out: inhibition of p-STAT5 in tumors, 10 mg/kg/d x 5 days, 48 hours post dose", "value": 60, "unit": "%"},
      {"measurement": "treated animals with regression and/or disease stabilization", "setting": "[2]", "value": "90-100%"},
      {"measurement": "Anorexia, drug-related clinical adverse events ≥G2", "setting": "[3]", "value": 2},
      {"measurement": "Hypertension (DLT), drug-related clinical adverse events ≥G2", "setting": "[3]", "value": "2 (1 G3)"},
      {"measurement": "patients with stable disease (SD) at their first evaluation", "setting": "[4]; 7/22 patients", "value": 32, "unit": "%"},
      {"measurement": "patients with SD for greater than 4 months", "setting": "[4]; in vivo", "value": 4, "unit": "patients"},
      {"measurement": "MST", "setting": "MV4;11 cells; 20 mg/kg cyclic, 7 days on/7 days off, 5 cycles", "value": 118, "unit": "days"},
      {"measurement": "MV4;11 cells in BM (leukemic burden)", "setting": "MV4;11 cells; 20 mg/kg daily over 25 days, flow cytometry", "value": "< 1", "unit": "%"},
      {"measurement": "increased life span (ILS)", "setting": "MV4;11 cells; 20 mg/kg daily, vs vehicle", "value": 163, "unit": "%"}
    ]},
    {"molecule": "C=C(Br)C(=O)Nc1cc(C(=O)Nc2cc(C(=O)Nc3cc(C(=O)Nc4cc(C(=O)NCCNC(=N)N)n(C)c4)n(C)c3)n(C)c2)n(C)c1", "note": "[Brostallicin]", "values": [
      {"measurement": "IC50", "setting": "[5]", "value": 1.45, "unit": "ng/mL"},
      {"measurement": "higher activity in melphalan-resistant L1210 than in the parental line", "setting": "[6]", "value": 3, "unit": "fold"},
      {"measurement": "IC50", "setting": "[6]; melphalan-resistant L1210", "value": 0.46, "unit": "ng/mL"}
    ]}
  ]
}
